According to patent publication US6211182A, “Imidazole compounds substituted with a six or seven membered heterocyclic ring containing two nitrogen atoms” (Schering Corporation, priority 1999, dated 2001):

Test system: rat
Experiment: not given
Settings: Clapham et al. 1993; cited from earlier work

Structure (SMILES) | short-term memory and reversal learning
S=C(NC1CCCCC1)N1CCC(c2cnc[nH]2)CC1 [thioperamide] | can improve short-term memory and reversal learning in the rat

Test system: mice
Experiment: not given
Settings: Yokoyama et al. 1993; cited from earlier work

Structure (SMILES) | duration of each phase of convulsion | electroconvulsive threshold
S=C(NC1CCCCC1)N1CCC(c2cnc[nH]2)CC1 [thioperamide] | decreased the duration of each phase of convulsion | raised the electroconvulsive threshold

Molecular target: T1, H3 receptor (Cavia porcellus, UniProt Q9JI35)
T1 construct: The source of the H3 receptors in this experiment was guinea pig brain; from tissue; host or cells: guinea pig brain membranes
T1 sequence (Q9JI35 whole entry): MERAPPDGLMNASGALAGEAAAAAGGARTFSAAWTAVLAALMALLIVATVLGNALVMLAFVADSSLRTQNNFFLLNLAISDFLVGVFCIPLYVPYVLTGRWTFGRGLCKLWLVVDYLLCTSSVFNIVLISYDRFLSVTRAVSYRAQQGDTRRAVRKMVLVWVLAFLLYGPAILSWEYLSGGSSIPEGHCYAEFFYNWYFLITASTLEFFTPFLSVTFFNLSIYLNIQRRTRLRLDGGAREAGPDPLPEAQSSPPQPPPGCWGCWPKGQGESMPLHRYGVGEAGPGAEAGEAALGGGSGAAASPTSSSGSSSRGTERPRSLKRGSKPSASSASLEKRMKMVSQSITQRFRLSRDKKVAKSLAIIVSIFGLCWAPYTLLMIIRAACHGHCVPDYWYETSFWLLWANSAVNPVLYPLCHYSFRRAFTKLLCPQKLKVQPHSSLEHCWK
Experiment: H3 Receptor Binding Assay (guinea pig brain membranes, [3H]R-α-methylhistamine or [3H]-N-methylhistamine)
Settings: 3 nM radioligand, 30° C., 30 min
Experimental: Procedure for H3 Receptor Binding Assay
The source of the H3 receptors in this experiment was guinea pig brain. The animals used weighed 400-600 g. The tissue was homogenized using a Polytron in a solution of 50 mM Tris, pH 7.5. The final concentration of tissue in the homogenization buffer was 10% w/v. The homogenates were centrifuged at 1000×g for 10 min. in order to remove clumps of tissue and debris. The resulting supernatants were then centrifuged at 50,000×g for 20 min. in order to sediment the membranes, which were next washed 3 times in homogenization buffer (50,000×g for 20 min. each). The membranes were frozen and stored at -70° C. until needed.
All compounds to be tested were dissolved in DMSO and then diluted into the binding buffer (50 mM Tris, pH 7.5) such that the final concentration was 2 μg/mL with 0.1% DMSO. Membranes were then added (400 μg of protein) to the reaction tubes. The reaction was started by the addition of 3 nM [^3 H]R-α-methylhistamine (8.8 Ci/mmol) or [^3 H]-N-methylhistamine (80 Ci/mmol) and incubated at 30° C. for 30 min. Bound ligand was separated from unbound ligand by filtration, and the amount of radioactive ligand bound to the membranes was quantitated by liquid scintillation spectrometry. All incubations were performed in duplicate and the standard error was less than 10% in all instances.

Ki | Structure (SMILES)
0.046 µM | CCOC(=O)C1CN(CCCCc2c[nH]cn2)CCN1Cc1ccc(Cl)cc1 (stereo not drawn)
0.025 µM | O=C(/C=C/c1cccnc1)N1CCN(CCCCc2c[nH]cn2)CC1
0.039 µM | O=C(NCCCCCc1c[nH]cn1)C1CNCCN1 (stereo not drawn)
0.006 µM | O=C(Nc1cccc(Cl)c1)N1CCN(CCCCc2c[nH]cn2)CC1
0.006 µM | O=C(/C=C/c1ccccc1)N1CCN(CCCCc2c[nH]cn2)CC1

Continued, compound first:

Structure (SMILES) | Ki
O=C(NCCCCc1c[nH]cn1)C1CNCCN1Cc1ccc(Cl)cc1 (stereo not drawn) | 0.038 µM
O=C(NCCCCc1c[nH]cn1)C1CN(Cc2ccc(Cl)cc2)CCN1Cc1ccc(Cl)cc1 (stereo not drawn) | 0.02 µM
CCOC(=O)C1CNCCN1CCCCc1c[nH]cn1 (stereo not drawn) | 0.032 µM
O=C(NCCCCc1c[nH]cn1)C1CN(Cc2ccc(Cl)cc2)CCN1 (stereo not drawn) | 0.046 µM
Clc1ccc(CN2CCN(Cc3ccc(Cl)cc3)C(CCc3c[nH]cn3)C2)cc1 (stereo not drawn) | 0.045 µM
O=C(Nc1ccc(C(F)(F)F)cc1)N1CCN(CCCCc2c[nH]cn2)CC1 | 0.014 µM

Same assay, conditions: unit given as mM

Ki | Structure (SMILES)
0.026 µM | CCOC(=O)C1CN(Cc2ccc(Cl)cc2)CCN1CCCCc1c[nH]cn1 (stereo not drawn)
